# Source: patent US20100298352A1, “SMALL MOLECULE INHIBITORS OF CANCER STEM CELLS” (University of Pittsburgh - Of the Commonwealth System of …, priority 2009, published 2010)
# How the values were obtained:
# Format in all cases: cell-based, human
# Oct3/4-GFP+ MCF7 cells = assay: Screen for selective inhibition of Oct3/4-GFP+MCF7 cells (GFP level / cell viability, 384 well plates); details: initial screen; 3 day exposure, 5 μM, triplicate samples, relative changes in GFP levels
# Protocol: MCF7 cells were used as the target population. Control cells consisted of Oct3/4-GFP-cells that were infected with a GFP-expressing lentivirus as a way of controlling for GFP expression. Initial screenings were performed in 384 well plates on triplicate samples. A fluorescent plate reader was used to quantify relative changes in GFP levels after a 3 day exposure to a 5 μM concentrations of each compound. […] These experiments were performed in 12 well plates in which 2000 cells/well were initially seeded and allowed to attach for one day. The following day (day 0), the medium was replaced with fresh medium containing the indicated concentrations of each compound. Cell counts were then performed manually on triplicate wells. Bars represent standard errors.
# The cell viability assay was performed as follows:
# Trypsinize cell and resuspend in MCF7 culture medium at a density of 4×10^4/ml Culture medium: alpha MEM, 10% FBS, 2 mM Glutamine, 1 mM Sodium Pyruvate, 1 mM non-essential amino acids, 100 U/ml Penicillin/Streptomycin
# (1) dilute compounds to 30 μM using alpha MEM
# (2) add 5 μl compounds to each well (final concentration 5 μM)
# (3) add 25 μl cell suspension to each well (1000 cells/well)
# (4) incubate cells with compounds for 72 hours at 37° C., 5% CO2
# 3. […] The plates were then read on SpectraMax M5 Microplate Reader using the wavelength of excitation 560 nm/emission 590 nm.
# [1] = system: Oct3/4-GFP+MCF7 cells versus unfractionated MCF7 cells; assay: Differential chemotherapeutic responses, viable adherent cell counts by trypan blue exclusion; details: FIG. 6; viable adherent cells over time
# Protocol: FIG. 6. Differential chemotherapeutic responses of MCF7 and Oct3/4-GFP+MCF7 cells. 10^5 unfractionated, MCF7 cells (dotted line) or Oct3/4GFP+MCF7 cells (broken line) were seeded into 6 well plates and allowed to achieve ca. 30-50% confluence. The indicated concentrations of adriamycin, etoposide, 5-fluorouracil, cis-platinum, methotrexate, and taxol were then added (day 0). The total number of viable adherent cells was then determined at the indicated times by trypan blue exclusion. […] Note that in most cases Oct4/4-GFP+MCF7 actually grew in the presence of all agents. These experiments were repeated at least two additional times with similar outcomes.
# Differential chemosensitivities of Oct3/4-GFP+MCF7 cells. It is believed that CSCs are more resistant to chemotherapeutic agents than TACs, thus at least partly accounting for the propensity of many tumors to relapse after an initial response. To test this idea, MCF7 cells and Oct3/4-GFP+MCF7 CSCs were exposed to six different chemotherapeutic agents commonly employed to treat breast cancer.
# [2] = system: MCF7 cells and Oct3/4-GFP+MCF7 cell population; assay: Hoechst 33342 side population (SP) exclusion; details: exposure to 20 μM Reserpine; SP fractions of MCF7 and Oct3/4-GFP+MCF7 cells
# Protocol: In other studies, Oct3/4-GFP+MCF7 cells were examined by qRT-PCR for expression of the breast cancer CSC markers CD133 and Oct3/4. After normalizing to GAPDH, the ratios of these transcripts in Oct3/4-GFP+MCF7 cells and non-CSC-MCF7 cells were 6.3 for CD 133 and 2.5 for Oct3/4. […] The SP is due to CSCs ability to exclude the dye Hoechst 33342 and reflects high expression of ABCG2 transporters such as MDR1 and BRCP. […] These fractions could also be reduced by >70% following exposure to 20 μM Reserpine, which inhibits ABC transporters. Moreover, the overall mean fluorescence intensity of the entire Oct3/4-GFP+MCF population was two-fold lower than that of the MCF7population. Thus, based on independent qRT-PCR assessments of CSC gene expression profiles and on uptake/exclusion of Hoechst 33342, one can conclude that the Oct3/4-GFP+MCF7 population consists of highly enriched and stable cells that are unable to differentiate into TACs.
SMILES,selectivity for Oct3/4-GFP+MCF7 cells over control GFP-lentivirus cells (Oct3/4-GFP+ MCF7 cells),also measured
Cl.NC[C@@H]1O[C@H](C23CC4CC(CC(C4)C2)C3)Cc2c1ccc(O)c2O [A77636],potentially selective agents,
CC(=O)O[C@H]1C(=O)[C@@]2(C)[C@H]([C@H](OC(=O)c3ccccc3)[C@]3(O)C[C@H](OC(=O)[C@H](O)[C@@H](NC(=O)c4ccccc4)c4ccccc4)C(C)=C1C3(C)C)[C@]1(OC(C)=O)CO[C@@H]1C[C@@H]2O [taxol],,sensitivity/resistance of Oct3/4-GFP+MCF7 cells relative to MCF7 cells [1]: significantly more sensitive
"CC(=O)c1c(O)c(C)c(O)c(Cc2c(O)c3c(c(C(=O)/C=C/c4ccccc4)c2O)OC(C)(C)C=C3)c1O [Rottlerin, 5,7-dihydroxy-2,2-dimethyl-6-(2,4,6-trihydroxy-3-methyl-5-acetylbenzyl)-8-cinnamoyl-1,2-chromene]",potentially selective agents,
COC(=O)[C@H]1[C@H]2C[C@@H]3c4[nH]c5cc(OC)ccc5c4CCN3C[C@H]2C[C@@H](OC(=O)c2cc(OC)c(OC)c(OC)c2)[C@@H]1OC [Reserpine],,reduction of side population (SP) fractions [2]: > 70%
